Values of other authors as cited in patent US10966421B2, “Method and device for collecting and preserving cells for analysis” (priority 2002, dated 2021).

Legend:
[1] = in vivo
[2] = in vivo; remark: listed apart in the source
[3] = in vivo; remark: listed apart in the source

Row | SMILES | Inhalation Toxicity [1] | Dermal Toxicity [2] [mg/kg] | LD50 [3] [mg/kg]
1 | C=O [Formaldehyde, formaldehyde, reference compound] | 500 mg/kg | 270 | –
2 | O=C(NCO)N(CO)C1(CO)C(=O)NC(=O)N1CO (centres unmarked) [Diazolidinyl urea, diazolidinyl urea] | None | 2000 | 2570
